Source: US11690810B2, “Combination treatment of bacterial infection” (The Chinese University of Hong Kong, priority 2018, dated 2023)
≈ marks a conversion by molar mass, not a printed value.

Columns and labels:
[1] = system: adherence of MRSA strain JE-2 to fibrinogen; test: Fibrinogen-binding adherence assay (crystal violet); type: cell-based, Staphylococcus aureus; settings: varying concentrations
[2] = system: bacterial aggregation of MRSA JE-2; test: Aggregation assay of MRSA JE-2; type: cell-based, Staphylococcus aureus; settings: JE-2; varying concentrations
[3] = system: NorA overexpressed S. aureus; settings: NorA overexpressed S. aureus, cited from earlier work
[4] = system: S. aureus SA-APH2″-AAC6′ (APH2), resistant to gentamicin; test: MIC and checkerboard (FIC) assay; settings: Staphylococcus aureus; for MIC99: read-out: MIC 99.9
[5] = system: S. aureus SA-APH3′ (APH3), resistant to kanamycin; test: MIC and checkerboard (FIC) assay; settings: Staphylococcus aureus; for MIC99: read-out: MIC 99.9
[6] = system: S. aureus SA-ANT4′ (ANT4), resistant to fusidic acid; test: MIC and checkerboard (FIC) assay; settings: Staphylococcus aureus; for MIC99: read-out: MIC 99.9
[7] = system: S. aureus SA-RN4220-pUL5054 (RN4220); test: MIC and checkerboard (FIC) assay; settings: Staphylococcus aureus; for MIC99: read-out: MIC 99.9
[8] = system: S. aureus SA-1199B (NorA efflux pump overexpressed); test: MIC and checkerboard (FIC) assay; settings: for MIC99: read-out: MIC 99.9
MRSA SA-ST239 = test: MIC and checkerboard (FIC) assay; settings: for MIC99: read-out: MIC 99.9
[9] = system: S. aureus ATCC25923 (methicillin sensitive); test: MIC and checkerboard (FIC) assay; settings: Staphylococcus aureus; for MIC90: ATCC25923; for MIC99: ATCC25923, read-out: MIC 99.9
[10] = system: panel of laboratory MRSA strains; test: MIC and combination tests, panel of laboratory strains; settings: tanshinone highest tested concentration 128 μg/ml
[11] = system: adherence of MRSA strain JE-2 to HaCat keratinocytes; test: Bacterial adherence to HaCaT keratinocytes; type: cell-based, Staphylococcus aureus; settings: varying concentrations of baicalein
[12] = system: internalization of MRSA strain JE-2 by HaCat keratinocytes; test: Internalization of S. aureus by HaCaT keratinocytes; type: cell-based, Staphylococcus aureus
CA-MRSA strain ST30 = test: MIC and checkerboard (FIC) assay; type: cell-based, Staphylococcus aureus
[13] = system: Panton-Valentine leukocidin positive CA-MRSA strain ST30; type: in vivo, Balb/c mice; settings: mouse, in vivo
clinical MRSA ST239 = test: Mouse pneumonia model, ST239 (neutropenic mice); type: in vivo, Balb/c mice; settings: mouse, in vivo
[14] = system: methicillin sensitive Staphylococcus aureus ATCC25923; test: Mouse pneumonia model, ATCC25923 (neutropenic mice); type: in vivo, Balb/c mice
physchem = settings: saline or isotonic
CA MRSA W44 = test: MIC and checkerboard (FIC) assay
CA MRSA W45 = test: MIC and checkerboard (FIC) assay
CA MRSA W46 = test: MIC and checkerboard (FIC) assay
CA MRSA W47 = test: MIC and checkerboard (FIC) assay
CA MRSA W48 = test: MIC and checkerboard (FIC) assay
HA MRSA W231 = test: MIC and checkerboard (FIC) assay
HA MRSA W232 = test: MIC and checkerboard (FIC) assay
HA MRSA W233 = test: MIC and checkerboard (FIC) assay
HA MRSA W238 = test: MIC and checkerboard (FIC) assay
HA MRSA W239 = test: MIC and checkerboard (FIC) assay
[15] = system: clinical community-associated (CA) and hospital-associated (HA) MRSA strains; test: MIC and combination tests, panel of clinical strains
Solubility = settings: MIC test medium
[16] = Staphylococcus aureus, MRSA, read-out: MIC alone

## COc1ccc2cc3[n+](cc2c1OC)CCc1cc2c(cc1-3)OCO2 [Berberine]
[1]
  fibrinogen-binding adherence: dose-dependent reduction of adherence
[2]
  bacterial aggregation: reduced
[3]; with multidrug pump inhibitor 5′-methoxyhydnocarpin
  antimicrobial action (MIC) potentiated: 2 µg/mL
[3]; without pump inhibitor
  antimicrobial action (MIC) alone: 32 µg/mL
[4]
  MIC90: 256 µg/mL
  MIC99: > 512 µg/mL
[5]
  MIC90: 128 µg/mL
  MIC99: > 512 µg/mL
[6]
  MIC90: 256 µg/mL
  MIC99: > 512 µg/mL
[7]
  MIC90: 256 µg/mL
  MIC99: > 512 µg/mL
[8]; Staphylococcus aureus
  MIC90: 256 µg/mL
  MIC99: > 512 µg/mL
MRSA SA-ST239; Staphylococcus aureus, MRSA
  MIC90: 256 µg/mL
  MIC99: > 512 µg/mL
[9]
  MIC90: 256 µg/mL
  MIC99: > 512 µg/mL
[10]
  activity against the tested MRSA strains when used alone: relatively weak

## O=c1cc(-c2ccccc2)oc2cc(O)c(O)c(O)c12 [Baicalein, 5,6,7-trihydroxyflavone]
[1]
  fibrinogen-binding adherence: minimal reduction in adherence
[11]
  average decrease in the adherence of the WT strain to HaCaT cells: 3.5 fold
[12]; 4 μg/ml (baicalein)
  decrease in the internalization as compared to the WT strain: 2.7 fold
[12]; 64 μg/ml of baicalein
  internalization lower as compared to the mutant ΔSrtA: 1.9 fold
  reduction in internalization as compared to the WT strain: 5 fold
[2]
  bacterial aggregation: reduced
[4]
  MIC90: 128 µg/mL
  MIC99: > 512 µg/mL
[5]
  MIC90: 64 µg/mL
  MIC99: > 512 µg/mL
[6]
  MIC90: 128 µg/mL
  MIC99: > 512 µg/mL
[7]
  MIC90: 64 µg/mL
  MIC99: > 512 µg/mL
[8]; 1199B, Baicalein with ECG
  FIC: 0.0625
  MIC combine: 8 µg/mL
[8]; Staphylococcus aureus
  MIC90: 128 µg/mL
  MIC99: > 512 µg/mL
[8]; Staphylococcus aureus, read-out: MIC alone, 1199B, Baicalein and ECG section
  MIC: 512 µg/mL
MRSA SA-ST239; Staphylococcus aureus, MRSA
  MIC90: 128 µg/mL
  MIC99: > 512 µg/mL
[9]
  MIC90: 128 µg/mL
  MIC99: > 512 µg/mL
[10]
  activity against the tested MRSA strains when used alone: relatively weak

## CN[C@H](CC(C)C)C(=O)N[C@H]1C(=O)N[C@@H](CC(N)=O)C(=O)N[C@H]2C(=O)N[C@H]3C(=O)N[C@H](C(=O)N[C@H](C(=O)O)c4cc(O)cc(O)c4-c4cc3ccc4O)[C@H](O)c3ccc(c(Cl)c3)Oc3cc2cc(c3O[C@@H]2O[C@H](CO)[C@@H](O)[C@H](O)[C@H]2O[C@H]2C[C@](C)(N)[C@H](O)[C@H](C)O2)Oc2ccc(cc2Cl)[C@H]1O [Vancomycin, vancomycin, reference compound]
CA-MRSA strain ST30; ST30, ECG+Kur+Van
  FIC: 0.5
  MIC combine: 0.5 µg/mL
CA-MRSA strain ST30; [16]
  MIC: 1 µg/mL
[13]
  expression levels of TNFα, IL-1β, and IL-6 from lung homogenates: significantly lowered
  lung tissue profiles (histology) vs control: fewer lesions
  survival rate: 100%
Clinical MRSA ST239
  mean bacteria counts (left lung): 4.73±0.26 log CFU
[14]
  lung tissue profiles (histology) vs control: fewer lesions
[14]; vancomycin 60 mg/kg, ECG 120 mg/kg, kuraridin 120 mg/kg, 48 h, control 8.909±0.101
  mean bacteria counts (left lung): 6.064±0.425 log CFU
physchem
  solubility: 20 mg/mL (≈ 13.8 mM)
MRSA SA-ST239; ST239, ECG+Kur+Van
  FIC: 0.5
  MIC combine: 0.5 µg/mL
MRSA SA-ST239; [16]
  MIC: 1 µg/mL
CA MRSA W44; [16]
  MIC: 1 µg/mL
CA MRSA W44; W44, ECG+Kur+Van
  FIC: 0.5
  MIC combine: 0.5 µg/mL
CA MRSA W45; [16]
  MIC: 1 µg/mL
CA MRSA W45; W45, ECG+Kur+Van
  FIC: 0.5
  MIC combine: 0.5 µg/mL
CA MRSA W46; [16]
  MIC: 1 µg/mL
CA MRSA W46; W46, ECG+Kur+Van
  FIC: 0.5
  MIC combine: 0.5 µg/mL
CA MRSA W47; [16]
  MIC: 1 µg/mL
CA MRSA W47; W47, ECG+Kur+Van
  FIC: 0.25
  MIC combine: 0.25 µg/mL
CA MRSA W48; [16]
  MIC: 1 µg/mL
CA MRSA W48; W48, ECG+Kur+Van
  FIC: 0.5
  MIC combine: 0.5 µg/mL
HA MRSA W231; [16]
  MIC: 1 µg/mL
HA MRSA W231; W231, ECG+Kur+Van
  MIC combine: 0.5 µg/mL
HA MRSA W232; [16]
  MIC: 1 µg/mL
HA MRSA W232; W232, ECG+Kur+Van
  FIC: 0.5
  MIC combine: 0.5 µg/mL
HA MRSA W233; [16]
  MIC: 1 µg/mL
HA MRSA W233; W233, ECG+Kur+Van
  FIC: 0.5
  MIC combine: 0.5 µg/mL
HA MRSA W238; [16]
  MIC: 1 µg/mL
HA MRSA W238; W238, ECG+Kur+Van
  FIC: 0.5
  MIC combine: 0.5 µg/mL
HA MRSA W239; [16]
  MIC: 1 µg/mL
HA MRSA W239; W239, ECG+Kur+Van
  FIC: 0.5
  MIC combine: 0.5 µg/mL
[15]; Staphylococcus aureus, MRSA, read-out: MIC of vancomycin alone
  MIC: 1 µg/mL
[15]; panel of clinical strains (Table 5)
  MIC of vancomycin with ECG and kuraridin combined treatment: 0.5 µg/mL

## Cc1coc2c1C(=O)C(=O)c1c-2ccc2c(C)cccc12 [Tanshinone, tanshinone]
Solubility
  solubility: poor
[4]
  MIC90: > 128 µg/mL
  MIC99: > 128 µg/mL
[5]
  MIC90: > 128 µg/mL
  MIC99: > 128 µg/mL
[6]
  MIC90: > 128 µg/mL
  MIC99: > 128 µg/mL
[7]
  MIC90: > 128 µg/mL
  MIC99: > 128 µg/mL
[8]; Staphylococcus aureus
  MIC90: > 128 µg/mL
  MIC99: > 128 µg/mL
MRSA SA-ST239; Staphylococcus aureus, MRSA
  MIC90: > 128 µg/mL
  MIC99: > 128 µg/mL
[9]
  MIC90: > 128 µg/mL
  MIC99: > 128 µg/mL
[10]
  activity against the tested MRSA strains when used alone: ineffective
